Molecular target: recombinant CaMKIIδ (Homo sapiens (Human), UniProt Q13557)
Assay: CaMKIIδ biochemical assay (HTRF)
Conditions: 10 pM CaMKIIδ, 110 nM calmodulin, 12 μM ATP, 1 hour; read-out: CAMKIID-HTRF-384V2 (IC50 - nM)
Experimental: CaMKIIδ Biochemical Assay
The biochemical activity of recombinant CaMKIIδ was measured by monitoring the phosphorylation of a target peptide using Homogenous Time Resolved Fluorescence (HTRF) technology from CisBio Bioassays.

SMILES | IC50 [nM]
CCNc1cc(C(=O)NC[C@H](C)N(CC)CC)cc(-c2cnn3ccc(-c4cccs4)nc23)n1 [Example 261, (S)—N-(2-(diethylamino)propyl)-2-(ethylamino)-6-(5-(thiophen-2-yl)pyrazolo[1,5-a]pyrimidin-3-yl)isonicotinamide] | 0.54
CCN(CC)[C@@H](C)CNC(=O)c1cc(-c2cnn3ccc(-c4ccncc4)nc23)nc(N2CC(OC)C2)c1 [Example 262, (S)—N-(2-(diethylamino)propyl)-2-(3-methoxyazetidin-1-yl)-6-(5-(pyridin-4-yl)pyrazolo[1,5-a]pyrimidin-3-yl)isonicotinamide] | 6.97
CCN(CC)[C@@H](C)CNC(=O)c1cc(-c2cnn3ccc(-c4cccs4)nc23)nc(N2CCC(C(N)=O)CC2)c1 [Example 263, (S)-2-(4-carbamoylpiperidin-1-yl)-N-(2-(diethylamino)propyl)-6-(5-(thiophen-2-yl)pyrazolo[1,5-a]pyrimidin-3-yl)isonicotinamide] | 0.51
CCN(CC)[C@@H](C)CNC(=O)c1cc(-c2cnn3ccc(-c4cccs4)nc23)nc(N2CCO[C@H](CO)C2)c1 [Example 264, N—((S)-2-(diethylamino)propyl)-2-((S)-2-(hydroxymethyl)morpholino)-6-(5-(thiophen-2-yl)pyrazolo[1,5-a]pyrimidin-3-yl)isonicotinamide] | 0.2
CCN(CC)[C@@H](C)CNC(=O)c1cc(-c2cnn3ccc(-c4cccs4)nc23)nc(N2CC[C@H]2COC)c1 [Example 265, N—((S)-2-(diethylamino)propyl)-2-((S)-2-(methoxymethyl)azetidin-1-yl)-6-(5-(thiophen-2-yl)pyrazolo[1,5-a]pyrimidin-3-yl)isonicotinamide] | 0.42
CCN(CC)[C@@H](C)CNC(=O)c1cc(-c2cnn3ccc(-c4cccs4)nc23)nc(N2CC[C@@H]2COC)c1 [Example 266, N—((S)-2-(diethylamino)propyl)-2-((R)-2-(methoxymethyl)azetidin-1-yl)-6-(5-(thiophen-2-yl)pyrazolo[1,5-a]pyrimidin-3-yl)isonicotinamide] | 0.46
CCN(CC)[C@@H](C)CNC(=O)c1cc(-c2cnn3ccc(-c4cccs4)nc23)nc(N2CC[C@@H]2CO)c1 [Example 267, N—((S)-2-(diethylamino)propyl)-2-((R)-2-(hydroxymethyl)azetidin-1-yl)-6-(5-(thiophen-2-yl)pyrazolo[1,5-a]pyrimidin-3-yl)isonicotinamide] | 0.28
CCN(CC)[C@@H](C)CNC(=O)c1cc(-c2cnn3ccc(-c4cccs4)nc23)nc(N2CC[C@H]2CO)c1 [Example 268, N—((S)-2-(diethylamino)propyl)-2-((S)-2-(hydroxymethyl)azetidin-1-yl)-6-(5-(thiophen-2-yl)pyrazolo[1,5-a]pyrimidin-3-yl)isonicotinamide] | 0.06
CCN(CC)[C@@H](C)CNC(=O)c1cc(-c2cnn3ccc(-c4cccs4)nc23)nc(N2CCC[C@@H]2C(N)=O)c1 [Example 269, 2-((R)-2-carbamoylpyrrolidin-1-yl)-N—((S)-2-(diethylamino)propyl)-6-(5-(thiophen-2-yl)pyrazolo[1,5-a]pyrimidin-3-yl)isonicotinamide] | 6.05
CCN(CC)[C@@H](C)CNC(=O)c1cc(-c2cnn3ccc(-c4cccs4)nc23)nc(N2CCC[C@H]2C(N)=O)c1 [Example 270, 2-((S)-2-carbamoylpyrrolidin-1-yl)-N—((S)-2-(diethylamino)propyl)-6-(5-(thiophen-2-yl)pyrazolo[1,5-a]pyrimidin-3-yl)isonicotinamide] | 1.91
CCN(CC)[C@@H](C)CNC(=O)c1cc(-c2cnn3ccc(-c4cccs4)nc23)nc(N2CCC[C@H]2CO)c1 [Example 271, N—((S)-2-(diethylamino)propyl)-2-((S)-2-(hydroxymethyl)pyrrolidin-1-yl)-6-(5-(thiophen-2-yl)pyrazolo[1,5-a]pyrimidin-3-yl)isonicotinamide] | 0.31

Source: patent US10100058B2, “Fused heterocyclic compounds as CaM kinase inhibitors” (Gilead Sciences, Inc., priority 2016, dated 2018)
